In patent EP0041644B1 (priority 1980, dated 1981):

Key:
Lewis Lung Carcinoma = Lewis Lung Carcinoma - Test 1 (ip, delayed therapy); type: in vivo, mice
L1210 Leukemia = L1210 Leukemia - Test 1 (survival of tumor-bearing mice); type: in vivo
Description: This evaluation of the ammonium salt finds the drug to be active against L1210 (ip) leukemia when administered ip one day post-implant of 10^6 L1210 cells (maximum T/C was 164%). […] The vehicle for the ammonium salt was water.

[1] = 0.5 mg/kg/day ip, qd 1→9, in H2O
[2] = 0.5 mg/kg/day ip, qd 1→9, in saline
[3] = 1 mg/kg/day ip, qd 1→9, in saline
[4] = 2 mg/kg/day ip, qd 1→9, in saline
[5] = 4 mg/kg/day ip, d. 1 only, in H2O
[6] = 4 mg/kg/day ip, d. 1 only, in saline

For `N.N.[Cl][Pt][Cl]` [Cis-DDP, cis-diammine dichloroplatinum (II)], the “Av. Wt. Change,g Day 9” value (Lewis Lung Carcinoma; 0.4 mg/kg/inj ip, qd 5→13) was -0.4 g, the “Effect MST %TC” value (Lewis Lung Carcinoma; 0.4 mg/kg/inj ip, qd 5→13) was 124 %TC and the “MST Days” value (Lewis Lung Carcinoma; 0.4 mg/kg/inj ip, qd 5→13) was 15.5 days. The “Av. Wt. Change,g Day 9” value (Lewis Lung Carcinoma; 0.8 mg/kg/inj ip, qd 5→13) was -0.6 g, the “Effect MST %TC” value (Lewis Lung Carcinoma; 0.8 mg/kg/inj ip, qd 5→13) was 136 %TC and the “MST Days” value (Lewis Lung Carcinoma; 0.8 mg/kg/inj ip, qd 5→13) was 17.0 days. For the same compound, the “Av. Wt. Change,g Day 9” value (Lewis Lung Carcinoma; 1.6 mg/kg/inj ip, qd 5→13) was -1.8 g, the “Effect MST %TC” value (Lewis Lung Carcinoma; 1.6 mg/kg/inj ip, qd 5→13) was 184 %TC and the “MST Days” value (Lewis Lung Carcinoma; 1.6 mg/kg/inj ip, qd 5→13) was 23.0 days. For the same compound, the “Av. Wt. Change,g Day 9” value (Lewis Lung Carcinoma; 2 mg/kg/inj ip, d. 5, 9&13) was “+0.8 g”, the “Effect MST %TC” value (Lewis Lung Carcinoma; 2 mg/kg/inj ip, d. 5, 9&13) was 152 %TC and the “MST Days” value (Lewis Lung Carcinoma; 2 mg/kg/inj ip, d. 5, 9&13) was 19.0 days. For the same compound, the “Av. Wt. Change,g Day 9” value (Lewis Lung Carcinoma; 2 mg/kg/inj iv, d. 5,9&13) was “+0.6 g”, the “Effect MST %TC” value (Lewis Lung Carcinoma; 2 mg/kg/inj iv, d. 5,9&13) was 104 %TC and the “MST Days” value (Lewis Lung Carcinoma; 2 mg/kg/inj iv, d. 5,9&13) was 13.0 days. For the same compound, the “Av. Wt. Change,g Day 9” value (Lewis Lung Carcinoma; 2.4 mg/kg/inj ip, qd 5→13) was -2.4 g, the “Effect MST %TC” value (Lewis Lung Carcinoma; 2.4 mg/kg/inj ip, qd 5→13) was 212 %TC and the “MST Days” value (Lewis Lung Carcinoma; 2.4 mg/kg/inj ip, qd 5→13) was 26.5 days. The “Av. Wt. Change,g Day 9” value (Lewis Lung Carcinoma; 4 mg/kg/inj ip, d. 5, 9&13) was -0.3 g, the “Effect MST %TC” value (Lewis Lung Carcinoma; 4 mg/kg/inj ip, d. 5, 9&13) was 168 %TC and the “MST Days” value (Lewis Lung Carcinoma; 4 mg/kg/inj ip, d. 5, 9&13) was 21.0 days. The “Av. Wt. Change,g Day 9” value (Lewis Lung Carcinoma; 4 mg/kg/inj iv, d. 5,9&13) was -0.7 g, the “Effect MST %TC” value (Lewis Lung Carcinoma; 4 mg/kg/inj iv, d. 5,9&13) was 120 %TC and the “MST Days” value (Lewis Lung Carcinoma; 4 mg/kg/inj iv, d. 5,9&13) was 15.0 days. For the same compound, the “Av. Wt. Change,g Day 9” value (Lewis Lung Carcinoma; 6 mg/kg/inj ip, d. 5, 9&13) was -0.8 g, the “Effect MST %TC” value (Lewis Lung Carcinoma; 6 mg/kg/inj ip, d. 5, 9&13) was 220 %TC and the “MST Days” value (Lewis Lung Carcinoma; 6 mg/kg/inj ip, d. 5, 9&13) was 27.5 days. For the same compound, the “Av. Wt. Change,g Day 9” value (Lewis Lung Carcinoma; 6 mg/kg/inj iv, d. 5,9&13) was -1.1 g, the “Effect MST %TC” value (Lewis Lung Carcinoma; 6 mg/kg/inj iv, d. 5,9&13) was 108 %TC and the “MST Days” value (Lewis Lung Carcinoma; 6 mg/kg/inj iv, d. 5,9&13) was 13.5 days. For the same compound, the “Av. Wt. Change,g Day 9” value (Lewis Lung Carcinoma; 8 mg/kg/inj ip, d. 5, 9&13) was -2.7 g, the “Effect MST %TC” value (Lewis Lung Carcinoma; 8 mg/kg/inj ip, d. 5, 9&13) was 128 %TC and the “MST Days” value (Lewis Lung Carcinoma; 8 mg/kg/inj ip, d. 5, 9&13) was 16.0 days. For the same compound, the “Av. Wt. Change,g Day 9” value (Lewis Lung Carcinoma; 8 mg/kg/inj iv, d. 5,9&13) was -0.7 g, the “Effect MST %TC” value (Lewis Lung Carcinoma; 8 mg/kg/inj iv, d. 5,9&13) was 112 %TC and the “MST Days” value (Lewis Lung Carcinoma; 8 mg/kg/inj iv, d. 5,9&13) was 14.0 days. For the same compound, the “Survivors Day 9(48)” value (Lewis Lung Carcinoma; 0.4 mg/kg/inj ip, qd 5→13) was 6/6, the “Survivors Day 9(48)” value (Lewis Lung Carcinoma; 0.8 mg/kg/inj ip, qd 5→13) was 5/6 and the “Survivors Day 9(48)” value (Lewis Lung Carcinoma; 1.6 mg/kg/inj ip, qd 5→13) was 6/6. For the same compound, the “Survivors Day 9(48)” value (Lewis Lung Carcinoma; 2 mg/kg/inj ip, d. 5, 9&13) was 6/6, the “Survivors Day 9(48)” value (Lewis Lung Carcinoma; 2 mg/kg/inj iv, d. 5,9&13) was 6/6 and the “Survivors Day 9(48)” value (Lewis Lung Carcinoma; 2.4 mg/kg/inj ip, qd 5→13) was 6/6. For the same compound, the “Survivors Day 9(48)” value (Lewis Lung Carcinoma; 4 mg/kg/inj ip, d. 5, 9&13) was 6/6, the “Survivors Day 9(48)” value (Lewis Lung Carcinoma; 4 mg/kg/inj iv, d. 5,9&13) was 6/6 and the “Survivors Day 9(48)” value (Lewis Lung Carcinoma; 6 mg/kg/inj ip, d. 5, 9&13) was 6/6. For the same compound, the “Survivors Day 9(48)” value (Lewis Lung Carcinoma; 6 mg/kg/inj iv, d. 5,9&13) was 6/6, the “Survivors Day 9(48)” value (Lewis Lung Carcinoma; 8 mg/kg/inj ip, d. 5, 9&13) was 6/6 and the “Survivors Day 9(48)” value (Lewis Lung Carcinoma; 8 mg/kg/inj iv, d. 5,9&13) was 6/6. The “maximum T/C” value (Lewis Lung Carcinoma; given ip, therapy from day 5) was 212-220%, the T/C (Lewis Lung Carcinoma; given iv, therapy from day 5) was “inactive” and the “Average Weight Change” value (L1210 Leukemia; [1]) was −3.8. For the same compound, the “Effect MST % T/C” value (L1210 Leukemia; [1]) was 143 % T/C, the “MST Days” value (L1210 Leukemia; [1]) was 10.0 days and the “Survivors Day 5(30)” value (L1210 Leukemia; [1]) was 6/6. The “Average Weight Change” value (L1210 Leukemia; [2]) was “+1.5”, the “Effect MST % T/C” value (L1210 Leukemia; [2]) was 100 % T/C and the “MST Days” value (L1210 Leukemia; [2]) was 7.0 days. The “Average Weight Change” value (L1210 Leukemia; 1 mg/kg/day ip, qd 1→9, in H2O) was −3.7, the “Effect MST % T/C” value (L1210 Leukemia; 1 mg/kg/day ip, qd 1→9, in H2O) was 114 % T/C and the “MST Days” value (L1210 Leukemia; 1 mg/kg/day ip, qd 1→9, in H2O) was 8.0 days. For the same compound, the “Survivors Day 5(30)” value (L1210 Leukemia; 1 mg/kg/day ip, qd 1→9, in H2O) was 6/6, the “Average Weight Change” value (L1210 Leukemia; [3]) was −0.9 and the “Effect MST % T/C” value (L1210 Leukemia; [3]) was 150 % T/C. For the same compound, the “MST Days” value (L1210 Leukemia; [3]) was 10.5 days, the “Survivors Day 5(30)” value (L1210 Leukemia; [3]) was 6/6 and the “Average Weight Change” value (L1210 Leukemia; 2 mg/kg/day ip, qd 1→9, in H2O) was −4.0. For the same compound, the “Effect MST % T/C” value (L1210 Leukemia; 2 mg/kg/day ip, qd 1→9, in H2O) was 86 % T/C, the “MST Days” value (L1210 Leukemia; 2 mg/kg/day ip, qd 1→9, in H2O) was 6.0 days and the “Survivors Day 5(30)” value (L1210 Leukemia; 2 mg/kg/day ip, qd 1→9, in H2O) was 4/6. For the same compound, the “Average Weight Change” value (L1210 Leukemia; [4]) was −3.3, the “Effect MST % T/C” value (L1210 Leukemia; [4]) was 250 % T/C and the “MST Days” value (L1210 Leukemia; [4]) was 17.5 days. The “Average Weight Change” value (L1210 Leukemia; [5]) was −5.9, the “Effect MST % T/C” value (L1210 Leukemia; [5]) was 100 % T/C and the “MST Days” value (L1210 Leukemia; [5]) was 7.0 days. For the same compound, the “Survivors Day 5(30)” value (L1210 Leukemia; [5]) was 6/6, the “Average Weight Change” value (L1210 Leukemia; [6]) was −0.7 and the “Effect MST % T/C” value (L1210 Leukemia; [6]) was 164 % T/C.
